Reference: PubChem BioAssay (NCI)
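These data come from cells grown in 96-well plates and exposed to compound for 48 hours at five concentrations. The concentration for 50% growth inhibition is given as GI50. Definition used: TGI = concentration required for complete inhibition of growth.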

Key:
Test in all cases: NCI tumour cell line growth inhibition, 48 h
NCI-H23 lung = system: NCI-H23 lung
DU-145 prostate = system: DU-145 prostate
NCI/ADR-RES ovarian = system: NCI/ADR-RES ovarian
PC-3 prostate = system: PC-3 prostate
HCT-116 colon = system: HCT-116 colon
LOX IMVI melanoma = system: LOX IMVI melanoma
MCF7 breast = system: MCF7 breast
SNB-19 CNS = system: SNB-19 CNS
HT29 colon = system: HT29 colon
MALME-3M melanoma = system: MALME-3M melanoma
MDA-MB-231 breast = system: MDA-MB-231 breast
K-562 leukemia = system: K-562 leukemia
HCT-15 colon = system: HCT-15 colon
ACHN renal = system: ACHN renal
SR leukemia = system: SR leukemia
CCRF-CEM leukemia = system: CCRF-CEM leukemia
KM12 colon = system: KM12 colon
OVCAR-4 ovarian = system: OVCAR-4 ovarian
A549 NSCLC = system: A549 NSCLC
OVCAR-5 ovarian = system: OVCAR-5 ovarian
HOP-92 NSCLC = system: HOP-92 NSCLC
MDA-MB-435 = system: MDA-MB-435
SN12C renal = system: SN12C renal
SK-MEL-28 melanoma = system: SK-MEL-28 melanoma
A498 renal = system: A498 renal
NCI-H226 lung = system: NCI-H226 lung
SF-295 CNS = system: SF-295 CNS
SW-620 colon = system: SW-620 colon
COLO 205 colon = system: COLO 205 colon
HCC-2998 colon = system: HCC-2998 colon
OVCAR-3 ovarian = system: OVCAR-3 ovarian
BT-549 breast = system: BT-549 breast
SK-OV-3 ovarian = system: SK-OV-3 ovarian
SK-MEL-2 melanoma = system: SK-MEL-2 melanoma
786-0 renal = system: 786-0 renal
HL-60(TB) leukemia = system: HL-60(TB) leukemia
M14 melanoma = system: M14 melanoma
MOLT-4 leukemia = system: MOLT-4 leukemia
U251 CNS = system: U251 CNS
NCI-H460 lung = system: NCI-H460 lung
T-47D breast = system: T-47D breast
SF-539 CNS = system: SF-539 CNS
CAKI-1 renal = system: CAKI-1 renal
RPMI-8226 leukemia = system: RPMI-8226 leukemia
UO-31 renal = system: UO-31 renal
RXF 393 renal = system: RXF 393 renal
SNB-75 CNS = system: SNB-75 CNS
UACC-62 melanoma = system: UACC-62 melanoma
HS 578T breast = system: HS 578T breast
SK-MEL-5 melanoma = system: SK-MEL-5 melanoma
IGROV1 ovarian = system: IGROV1 ovarian
NCI-H522 lung = system: NCI-H522 lung
UACC-257 melanoma = system: UACC-257 melanoma
HOP-62 NSCLC = system: HOP-62 NSCLC
TK-10 renal = system: TK-10 renal
OVCAR-8 ovarian = system: OVCAR-8 ovarian
SF-268 CNS = system: SF-268 CNS

In the case of Cn1cc(C2=C(c3cn(CCSC(=N)N)c4ccccc34)C(=O)NC2=O)c2ccccc21, the GI50 (NCI-H23 lung) was 3.53 µM, the TGI (NCI-H23 lung) was 7.92 µM and the GI50 (DU-145 prostate) was 3.94 µM. For the same compound, the TGI (DU-145 prostate) was 7.81 µM, the GI50 (NCI/ADR-RES ovarian) was 13.2 µM and the TGI (NCI/ADR-RES ovarian) was 25 µM. For the same compound, the GI50 (PC-3 prostate) was 3.51 µM, the TGI (PC-3 prostate) was 8.4 µM and the GI50 (HCT-116 colon) was 1.45 µM. For the same compound, the TGI (HCT-116 colon) was 5.77 µM, the GI50 (LOX IMVI melanoma) was 3.02 µM and the TGI (LOX IMVI melanoma) was 6.52 µM. It also gave a GI50 (MCF7 breast) of 1.19 µM, a TGI (MCF7 breast) of 4.55 µM and a GI50 (SNB-19 CNS) of 4.74 µM. The TGI (SNB-19 CNS) was 10.3 µM, the GI50 (HT29 colon) was 1.31 µM and the TGI (HT29 colon) was 5.28 µM. It also gave a GI50 (MALME-3M melanoma) of 4.08 µM, a TGI (MALME-3M melanoma) of 7.83 µM and a GI50 (MDA-MB-231 breast) of 4.12 µM. The TGI (MDA-MB-231 breast) was 8.29 µM, the GI50 (K-562 leukemia) was 1.87 µM and the TGI (K-562 leukemia) was 6.1 µM. For the same compound, the GI50 (HCT-15 colon) was 5.21 µM, the TGI (HCT-15 colon) was 11.9 µM and the GI50 (ACHN renal) was 3.81 µM. For the same compound, the TGI (ACHN renal) was 7.74 µM, the GI50 (SR leukemia) was 1.23 µM and the TGI (SR leukemia) was 6.87 µM. For the same compound, the GI50 (CCRF-CEM leukemia) was 1.38 µM, the TGI (CCRF-CEM leukemia) was 12.7 µM and the GI50 (KM12 colon) was 3.13 µM. For the same compound, the TGI (KM12 colon) was 6.57 µM, the GI50 (OVCAR-4 ovarian) was 3.88 µM and the TGI (OVCAR-4 ovarian) was 8.96 µM. The GI50 (A549 NSCLC) was 3.94 µM, the TGI (A549 NSCLC) was 8.18 µM and the GI50 (OVCAR-5 ovarian) was 6.25 µM. It also gave a TGI (OVCAR-5 ovarian) of 14.1 µM, a GI50 (HOP-92 NSCLC) of 2.38 µM and a TGI (HOP-92 NSCLC) of 8.78 µM. The GI50 (MDA-MB-435) was 1.73 µM, the TGI (MDA-MB-435) was 5.25 µM and the GI50 (SN12C renal) was 2.8 µM. For the same compound, the TGI (SN12C renal) was 6.37 µM, the GI50 (SK-MEL-28 melanoma) was 3.53 µM and the TGI (SK-MEL-28 melanoma) was 7.06 µM. For the same compound, the GI50 (A498 renal) was 4.22 µM, the TGI (A498 renal) was 8.95 µM and the GI50 (NCI-H226 lung) was 4.49 µM. It also gave a TGI (NCI-H226 lung) of 12.2 µM, a GI50 (SF-295 CNS) of 3.47 µM and a TGI (SF-295 CNS) of 7.39 µM. The GI50 (SW-620 colon) was 3.25 µM, the TGI (SW-620 colon) was 7.05 µM and the GI50 (COLO 205 colon) was 1.13 µM. The TGI (COLO 205 colon) was 4.52 µM, the GI50 (HCC-2998 colon) was 4.13 µM and the TGI (HCC-2998 colon) was 8.07 µM. For the same compound, the GI50 (OVCAR-3 ovarian) was 3.37 µM, the TGI (OVCAR-3 ovarian) was 6.74 µM and the GI50 (BT-549 breast) was 4.11 µM. For the same compound, the TGI (BT-549 breast) was 8.31 µM, the GI50 (SK-OV-3 ovarian) was 2.79 µM and the TGI (SK-OV-3 ovarian) was 6.56 µM. For the same compound, the GI50 (SK-MEL-2 melanoma) was 2.79 µM, the TGI (SK-MEL-2 melanoma) was 6.22 µM and the GI50 (786-0 renal) was 4.29 µM. The TGI (786-0 renal) was 10.7 µM, the GI50 (HL-60(TB) leukemia) was 4.65 µM and the TGI (HL-60(TB) leukemia) was 10 µM. It also gave a GI50 (M14 melanoma) of 3.74 µM, a TGI (M14 melanoma) of 8.01 µM and a GI50 (MOLT-4 leukemia) of 1.98 µM. It also gave a TGI (MOLT-4 leukemia) of 7.95 µM, a GI50 (U251 CNS) of 2.91 µM and a TGI (U251 CNS) of 6.32 µM. It also gave a GI50 (NCI-H460 lung) of 3.84 µM, a TGI (NCI-H460 lung) of 7.69 µM and a GI50 (T-47D breast) of 3.24 µM. The TGI (T-47D breast) was 8.25 µM, the GI50 (SF-539 CNS) was 3.63 µM and the TGI (SF-539 CNS) was 7.62 µM. For the same compound, the GI50 (CAKI-1 renal) was 4.47 µM, the TGI (CAKI-1 renal) was 9.25 µM and the GI50 (RPMI-8226 leukemia) was 4.18 µM. The TGI (RPMI-8226 leukemia) was 10.1 µM, the GI50 (UO-31 renal) was 3.63 µM and the TGI (UO-31 renal) was 7.71 µM. It also gave a GI50 (RXF 393 renal) of 3.56 µM, a TGI (RXF 393 renal) of 8.23 µM and a GI50 (SNB-75 CNS) of 1.49 µM. It also gave a TGI (SNB-75 CNS) of 5.84 µM, a GI50 (UACC-62 melanoma) of 3.94 µM and a TGI (UACC-62 melanoma) of 7.43 µM. It also gave a GI50 (HS 578T breast) of 3.24 µM, a TGI (HS 578T breast) of 10.4 µM and a GI50 (SK-MEL-5 melanoma) of 3.83 µM. The TGI (SK-MEL-5 melanoma) was 7.43 µM, the GI50 (IGROV1 ovarian) was 4.92 µM and the TGI (IGROV1 ovarian) was 9.46 µM. For the same compound, the GI50 (NCI-H522 lung) was 1.88 µM, the TGI (NCI-H522 lung) was 5.64 µM and the GI50 (UACC-257 melanoma) was 3.85 µM. The TGI (UACC-257 melanoma) was 7.79 µM, the GI50 (HOP-62 NSCLC) was 3.81 µM and the TGI (HOP-62 NSCLC) was 7.98 µM. For the same compound, the GI50 (TK-10 renal) was 3.15 µM, the TGI (TK-10 renal) was 6.54 µM and the GI50 (OVCAR-8 ovarian) was 3.95 µM. For the same compound, the TGI (OVCAR-8 ovarian) was 8.91 µM, the GI50 (SF-268 CNS) was 3.91 µM and the TGI (SF-268 CNS) was 8.18 µM.
